The source of these data is ChEMBL document CHEMBL1955720 (Bioorg Med Chem, 2012).

One data set deals with HEK293. The data set is described as follows: Inhibition of TNF-alpha activated NF-kappaB expressed in HEK293 cells at 50 uM by luciferase reporter gene assay. Format: cell-based. For orientation: A reporter such as luciferase makes a cellular process visible.
Data set [1] is described as follows: Inhibition of TNF-alpha activated NF-kappaB expressed in HEK293 cells by luciferase reporter gene assay. Format: cell-based.
Data set [2] has as its system RAW264.7. Kind of data set: Antiinflammatory activity in mouse RAW264.7 cells assessed as inhibition of LPS-induced NO production at 40 uM preincubated for 30 mins measured 24 hrs post LPS challenge by Griess method. The class given is functional. (Griess reagent forms a coloured azo dye with nitrite.)
In data set [3] the target is NAD(P)H dehydrogenase [quinone] 1 (Mus musculus) (UniProt Q64669). The data set is described as follows: Induction of QR1 in mouse Hepa-1c1c7 cells assessed as concentration required to double QR1 induction by MTT assay. Format: cell-based.
In data set [4] the target is T1, Aromatase (Homo sapiens, UniProt P11511).
T1 sequence (P11511 whole entry): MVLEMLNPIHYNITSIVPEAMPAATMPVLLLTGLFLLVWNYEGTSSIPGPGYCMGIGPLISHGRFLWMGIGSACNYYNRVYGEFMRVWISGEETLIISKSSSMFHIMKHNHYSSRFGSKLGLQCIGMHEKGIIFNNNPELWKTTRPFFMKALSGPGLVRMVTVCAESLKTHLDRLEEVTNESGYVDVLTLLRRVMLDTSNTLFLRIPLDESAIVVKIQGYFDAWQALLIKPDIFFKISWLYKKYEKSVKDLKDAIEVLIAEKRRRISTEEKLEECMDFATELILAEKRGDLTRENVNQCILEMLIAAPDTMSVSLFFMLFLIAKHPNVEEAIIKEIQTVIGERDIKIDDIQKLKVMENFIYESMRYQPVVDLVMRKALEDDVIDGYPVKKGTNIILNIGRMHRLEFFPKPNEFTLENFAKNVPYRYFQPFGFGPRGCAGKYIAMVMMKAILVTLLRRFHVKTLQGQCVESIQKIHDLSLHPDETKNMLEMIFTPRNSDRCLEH

The target of data set [5] is NAD(P)H dehydrogenase [quinone] 1 (Mus musculus) (UniProt Q64669). Kind of data set: Induction of QR1 in mouse Hepa-1c1c7 cells assessed as induction ratio at 50 uM by MTT assay. The class given is cell-based. Background: Formazan colour is commonly taken as a measure of viable cells.
The target in data set [6] is T1, Aromatase. The source holds these as a separate data set.
For data set [7], the target named is T1, Aromatase. The data set is described as follows: Inhibition of human aromatase using dibenzylfluorescein substrate at 20 uM after 30 mins by fluorescence assay. The note with it: 0.5 h.
Data set [8] has as its system RAW264.7. The data set is described as follows: Antiinflammatory activity in mouse RAW264.7 cells assessed as inhibition of LPS-induced NO production preincubated for 30 mins measured 24 hrs post LPS challenge by Griess method. Format: functional, cell-based.
The target of data set [9] is T2, Nitric oxide synthase, inducible (Mus musculus, UniProt P29477).
T2 sequence (P29477 whole entry): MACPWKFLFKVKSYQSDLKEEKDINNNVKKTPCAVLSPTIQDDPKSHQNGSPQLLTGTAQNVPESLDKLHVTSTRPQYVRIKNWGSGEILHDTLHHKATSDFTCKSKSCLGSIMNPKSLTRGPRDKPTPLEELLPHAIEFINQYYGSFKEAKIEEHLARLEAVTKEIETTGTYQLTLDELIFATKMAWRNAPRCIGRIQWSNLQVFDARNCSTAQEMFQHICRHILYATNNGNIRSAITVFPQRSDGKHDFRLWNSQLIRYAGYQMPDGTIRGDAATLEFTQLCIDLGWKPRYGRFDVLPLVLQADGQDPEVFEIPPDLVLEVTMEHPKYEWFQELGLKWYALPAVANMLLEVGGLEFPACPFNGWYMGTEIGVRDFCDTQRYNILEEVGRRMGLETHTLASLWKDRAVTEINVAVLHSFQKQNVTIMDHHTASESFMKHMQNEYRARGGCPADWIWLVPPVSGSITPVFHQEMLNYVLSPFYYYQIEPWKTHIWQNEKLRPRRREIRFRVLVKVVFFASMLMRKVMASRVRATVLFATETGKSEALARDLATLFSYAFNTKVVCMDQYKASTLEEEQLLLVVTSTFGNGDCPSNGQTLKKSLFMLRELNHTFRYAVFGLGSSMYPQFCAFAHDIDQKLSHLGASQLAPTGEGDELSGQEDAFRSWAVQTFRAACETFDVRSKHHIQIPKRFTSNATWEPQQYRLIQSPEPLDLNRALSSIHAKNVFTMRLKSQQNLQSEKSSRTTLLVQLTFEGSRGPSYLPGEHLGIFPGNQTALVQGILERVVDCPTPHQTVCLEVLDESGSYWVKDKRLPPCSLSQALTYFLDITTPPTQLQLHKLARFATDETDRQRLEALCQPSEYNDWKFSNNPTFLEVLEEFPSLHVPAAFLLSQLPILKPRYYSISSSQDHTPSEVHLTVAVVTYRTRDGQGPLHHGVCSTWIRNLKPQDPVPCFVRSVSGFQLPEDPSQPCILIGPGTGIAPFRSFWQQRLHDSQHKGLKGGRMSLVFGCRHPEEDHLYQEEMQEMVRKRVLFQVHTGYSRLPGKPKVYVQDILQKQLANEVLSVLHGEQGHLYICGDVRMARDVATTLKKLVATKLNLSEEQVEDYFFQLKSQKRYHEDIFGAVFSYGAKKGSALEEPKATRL
Description: Inhibition of iNOS in LPS-stimulated mouse RAW264.7 cells after 18 hrs

For a further data set, the system named is MCF7. The data set is described as follows: cells. Conditions: Homo sapiens; call rule not given here.

Each structure is given as a SMILES string.

NAD(P)H dehydrogenase [quinone] 1 (Mus musculus), sequence (Q64669 whole entry): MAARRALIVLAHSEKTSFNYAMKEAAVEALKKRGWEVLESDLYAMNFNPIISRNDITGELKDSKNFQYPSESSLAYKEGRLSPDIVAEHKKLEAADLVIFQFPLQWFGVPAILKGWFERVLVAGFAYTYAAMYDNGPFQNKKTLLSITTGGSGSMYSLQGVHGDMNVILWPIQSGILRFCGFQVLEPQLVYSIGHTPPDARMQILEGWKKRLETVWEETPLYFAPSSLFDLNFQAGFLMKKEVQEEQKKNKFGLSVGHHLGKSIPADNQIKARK
Description for MCF7: Cytotoxicity against human MCF7 cells by SRB assay

In general, inhibition refers to the relative decrease from the control value, in per cent. What is called IC50 is the concentration needed to halve the response being measured. Regarding `Clc1ccc(-c2nc(-c3cccnc3)cs2)cc1`, the inhibition with HEK293 was 54%. Besides, the IC50 in data set [1] amounted to 10400 nM. For the same compound, the inhibition at 40 µM in the data set with RAW264.7 [2] turned out to be 76.3%. Also, the CD in data set [3] amounted to 32 µM.

On to `Fc1ccc(-c2nc(-c3cccnc3)cs2)cc1`, for which the inhibition in the data set on HEK293 came out at 28.8%. For the same compound, in the data set on RAW264.7 [2], the inhibition at 40 µM was determined as 54.6%.

Take `COc1ccc(-c2csc(-c3cccnc3)n2)cn1`: in the data set with RAW264.7 [2], the inhibition at 40 µM came out at 16.3%.

Usually Ki stands for the equilibrium dissociation constant of an inhibitor or competing ligand from its target. A higher Ki goes with lower affinity. Take `Brc1ccc(-c2nc(-c3cccnc3)cs2)cc1`: in the data set on HEK293, the inhibition stood at 46.8%. Further, the IC50 in data set [1] worked out at 19900 nM; on Aromatase [4], 7920 nM. The inhibition at 40 µM in the data set with RAW264.7 [2] came to 72.5%. For the same compound, the Ratio in data set [5] was 4.27. Also, the affinity at Aromatase [6] corresponds to a Ki of 1720 nM. Also, the CD in data set [3] was 32.8 µM.

For the compound `c1cncc(-c2csc(-c3ccncc3)n2)c1`, the inhibition in the data set with HEK293 amounted to 68.8%. The compound further returned an IC50 in data set [1] of 2550 nM.

With `Brc1ccc(-c2csc(-c3ccncc3)n2)cn1`, the “inhibition (INH)” value against Aromatase [7] is “Active”. On Aromatase [4], this compound returned an IC50 of 2680 nM. Also, in the data set on RAW264.7 [2], the inhibition at 40 µM came out at 8.6%. In addition, the Ratio in data set [5] came out at 1.5. Further, on Aromatase [6], affinity was put at a Ki of 285 nM.

On to `COc1cc(-c2nc(-c3cccnc3)cs2)ccn1`, for which the inhibition in the data set on HEK293 was -4.9%. Besides, the IC50 at Aromatase [4] was determined as 23 nM; in the data set with RAW264.7 [8], 47800 nM. Also, the inhibition at 40 µM in the data set on RAW264.7 [2] was found to be 54.7%. In addition, in [5], the Ratio was determined as 0.7. This compound also gave a Ki at Aromatase [6] of 0.65 nM.

As to `Brc1ccc(-c2csc(-c3cccnc3)n2)cn1`, the inhibition in the data set on HEK293 worked out at 16.4%. In addition, on Aromatase [7], the “inhibition (INH)” value was “Active”. On Aromatase [4], the midpoint of inhibition, the IC50, lay at 7410 nM. In the data set on RAW264.7 [2], the inhibition at 40 µM came out at 22.7%. In data set [5], the Ratio was 5.1. Also, at Aromatase [6], affinity was put at a Ki of 1480 nM. The CD in data set [3] stood at 20.1 µM.

For the compound `Clc1cc(-c2nc(-c3cccnc3)cs2)ccn1`, the inhibition at 40 µM in the data set on RAW264.7 [2] is -5.2%.

In the case of `COc1cccc(-c2nc(-c3cccnc3)ns2)c1`, in the data set with HEK293, the inhibition turned out to be 22.4%. For the same compound, in data set [3], the CD came out at 0.08 µM.

On to `CCOc1ccc(-c2csc(-c3ccncc3)n2)cn1`, for which the inhibition with HEK293 was -2.4%. Besides, the “inhibition (INH)” value at Aromatase [7] is “Active”. On Aromatase [4], this compound registered a half-inhibitory concentration (IC50) of 1360 nM. The inhibition at 40 µM in the data set on RAW264.7 [2] was determined as 28.1%. The Ratio in [5] amounted to 1.1. In addition, affinity on Aromatase [6] was put at a Ki of 100 nM.

Turning to `COc1ccc(-c2csc(-c3ccncc3)n2)cn1`, the inhibition with HEK293 was 6%. For the same compound, the inhibition at 40 µM with RAW264.7 [2] was 32.1%.

As to `Oc1ccc(-c2nc(-c3cccnc3)cs2)cc1`, the inhibition with HEK293 turned out to be 52.9%. The compound further gave an IC50 against Aromatase [4] of 11200 nM. In addition, in the data set on RAW264.7 [2], the inhibition at 40 µM turned out to be 35.7%. In data set [5], the Ratio is 0.87. For the same compound, on Aromatase [6], the affinity corresponds to a Ki of 2550 nM.

As to `Oc1ccc(/C=C/c2cc(O)cc(O)c2)cc1` [RESVERATROL], the 50% inhibitory concentration (IC50) in data set [9] was found to be 23200 nM; in the data set with MCF7 it was 87600 nM.

Turning to `c1ccc(-c2nc(-c3cccnc3)cs2)cc1`, in the data set with HEK293, the inhibition stood at 50.3%. Also, the IC50 in [1] is 17700 nM; on Aromatase [4], 900 nM. Besides, the inhibition at 40 µM with RAW264.7 [2] was determined as 60.1%. In data set [5], the Ratio stood at 1.45. In addition, the Ki at Aromatase [6] was 63.4 nM.

For `COc1ccc(-c2nc(-c3cccnc3)cs2)cc1`, in the data set with HEK293, the inhibition was determined as 59.9%. This compound also had an IC50 against Aromatase [4] of 18000 nM. Further, the inhibition at 40 µM in the data set on RAW264.7 [2] worked out at 48.3%. The Ratio in data set [5] came to 1.1. The Ki at Aromatase [6] was 15000 nM.

Regarding `Brc1cccc(-c2nc(-c3cccnc3)ns2)c1`, in the data set with HEK293, the inhibition was 12.9%. The half-inhibitory concentration (IC50) on Aromatase [4] turned out to be 6730 nM. The Ratio in data set [5] amounted to 9.2. This compound also registered a Ki at Aromatase [6] of 1160 nM. In data set [3], the CD worked out at 0.06 µM.
